Measurements published in patent US20250249001A1, “METHODS OF TREATING SUBSTANCE USE DISORDER WITH 4-(3-CYANOPHENYL)-6-PYRIDINYLPYRIMIDINE MGLU5 NEGATIVE ALLOSTERIC MODULATORS” (Tempero Bio, Inc., priority 2022, published 2025).

Assays:
[1] = system: cocaine-induced CPP in male SD rats; format: in vivo, Sprague Dawley rats; conditions: cocaine 10 mg/kg IP on days 3, 5, 7, 9; day 10 bias test
Method: Animals: Male Sprague Dawley rats (Envigo, IN, 275-299 g) were group housed upon arrival (2 per cage). All rats were examined and handled to assure adequate health and suitability. During the study, a 12/12 light/dark cycle was maintained (lights switched on at 7:00 am). The room temperature was maintained between […] and 23° C. with a relative humidity maintained around 50%. Chow (LabDiet #5001) and water were provided ad libitum for the duration of the study. The test was performed during the animal's light cycle phase.
Cocaine (10 mg/kg) was dissolved in saline and injected IP at a dose volume of 1 ml/kg. Cocaine was administered on training days 3, 5, 7 and 9 immediately prior to training.
3-((2-Methyl-4-thiazolyl)ethynyl)pyridine (MTEP, 3 mg/kg), was dissolved in saline and injected IP on day 10 (bias test) at a dose volume of 1 ml/kg 30 minutes prior to testing.
Compound 1 (1, 3 and 10 mg/kg) was formulated in 10% Solutol HS15 and 90% (10% aqueous 2-hydroxypropyl-β-cyclodextrin) and injected IP on day 10 (bias test) at a dose volume of 2 ml/kg. Compound 1 was administered 30 minutes prior to testing.
The chamber used in this study contained two compartments [(60 cm (L)×40 cm (W)×24 cm (H)]. The compartment used for each animal and drug pairing was assigned and counterbalanced in advance and adjusted as necessary in the rebalancing procedure after day 1 (see details below). Within the chamber, visual and physical features were used to create the two distinct compartments. For example, one compartment may have a flat plastic floor with white stripes and the other may have a textured floor and black stripes. The chambers were cleaned with 70% alcohol in between runs.
Testing sessions were recorded on days 1 and 10 to determine time spent (seconds) in each chamber.
Day 1 Pre-conditioning/Habituation: Animals are allowed to explore the entire testing chamber freely for 20 min. Animals that display a strong preference for one compartment (>75% time spent in one compartment) are excluded.
Rebalancing Procedure: Animals are rebalanced following day 1 scoring if the difference between groups for time spent in one compartment is greater than 15%.
Days 2-9 Conditioning: All animals are treated with saline on days 2, 4, 6, and 8 and with cocaine or saline on days 3, 5, 7, and 9 depending on their assigned group. Animals are confined to their assigned compartment (saline- or cocaine-paired compartment) for 20 minutes following dosing.
Day 10 Post-conditioning bias test: Animals are dosed once with either saline, MTEP or Compound 1 (1, 3 and 10 mg/kg) according to their assigned. Following dosing, animals are allowed to explore the testing chamber freely for 20 minutes with the compartment dividing door open. Their activity exploring the chamber is recorded for analysis.
Statistical Analysis: Statistical analysis was conducted using GraphPad Prism 9. Scorers blinded to the treatment groups scored the amount of time each animal spent exploring each chamber on days 1 and 10. For bias test data, a one-way analysis of variance (ANOVA) followed by Dunnett's post hoc test was used. Significance was set at p<0.05 and values exceeding two standard deviations of the mean were considered statistical outliers and were excluded from the analysis. Additionally, if an animal spent >85% or <15% of the time in one compartment even without any obvious signs of sedation or locomotor dysfunction, they were excluded from the analysis.

[2] = system: voluntary home-cage alcohol drinking by Wistar rats; test: Home-cage two-bottle choice alcohol drinking, acute treatment; format: in vivo
Method: Animals: Male Wistar rats (Charles River Laboratories, INC) were used in these studies. Rat housing and testing was conducted at the University of North Carolina at Chapel Hill (UNC-CH) School of Medicine in a state-of-the-art rodent vivarium approved by the Association for Assessment and Accreditation of Laboratory Animal Care International (AAALAC). Rat health was monitored daily by study investigators and veterinarians in the Division of Comparative Medicine UNC. All experimental procedures were carried out in accordance with the NIH Guide to Care and Use of Laboratory Animals (Committee for the Update of the Guide for the Care and Use of Laboratory Animals, 2011) and institutional guidelines.
Rats were housed individually in standard Plexiglas cages with standard rodent food and water available ad libitum. Upon arrival from the vendor, rats were given 7 days to acclimate to the vivarium during which they were weighed and handled by an investigator each day to monitor general health and habituate them to human contact. Rats were then weighed each day within 1-h of experimental procedures to calculate drug dosages relative to body weight. […] The colony was maintained at […] on a 12-hour light/dark cycle, with the lights on from 10 AM-10 PM. All behavioral experiments were conducted during the light portion of the light cycle.
Home-cage alcohol drinking method. Oral alcohol and water intake were examined using a two-bottle choice protocol, which is standard in the field and commonly used in our laboratory. Male Wistar rats (n=12) were first adapted to drinking from a 50 ml conical tube fitted with a standard stainless-steel ball bearing sipper tube that limits spillage. Then, two bottles were place on the cage daily. One bottle contained an alcohol solution and the other contained water. Bottles containing fresh solutions were weighed daily before and after a 24 hr access period. After drug treatment, bottles were weighed after 1 hr and 24 hrs of access. Each week, rats had 4-5 days of sweetened alcohol and water available and the remaining days only water.
Briefly, rats were first exposed to alcohol (10% v/v)+sucrose (5% w/v). versus water in the two bottles. Then, over a period of 6-weeks, the concentrations of alcohol and sucrose were gradually adjusted to alcohol (8% v/v)+sucrose (2% w/v) to achieve intake of pharmacologically relevant doses of alcohol. Rats were maintained at this concentration for the duration of the experiment for both acute (3.1.a) and chronic (3.1.b) home-cage drinking studies. Use of sweetened alcohol solutions in preclinical research provides face validity to the binge-intoxication stage of alcohol addiction in humans where sweeteners are commonly added to alcohol.
Compound 1 treatment. After establishing baseline intake of sweetened alcohol and water, rats were habituated to i.p. injections. All rats (N=12) were administered 3 habituation injections of vehicle (10% w/v kolliphor in BCD (10%)) prior to the Compound 1 dose response curve and alcohol intake was measured. Then, the Compound 1 dose response curve was conducted with dose order randomized according to a modified Latin-Square design. Rats were given a minimum of 1-2 days between injections to ensure normal drinking was re-established in absence of drug administration. Each dose of Compound 1 (0-10 mg/kg) was administered via i.p. injection and rats were placed back in the home-cage for 1 hr prior to the return of sweetened alcohol and water. Alcohol intake was measured after 1-h and 24-hrs of access in grams by weighing the drinking bottles. Data were excluded from 1 rat that emptied both bottles fully each day without drinking the solutions; thus, results are presented for a final group of N=11 rats.
Efficacy comparisons to MPEP and Naltrexone. […]

[3] = system: operant alcohol self-administration in Wistar rats; test: Operant alcohol self-administration (FR-1), acute treatment; format: in vivo; conditions: 3 mg/kg IP, 1-h pretreatment
Source text: Twelve operant conditioning chambers designed for rats (30.5 cm×24.1 cm×21.0 cm; Med Associates, Georgia, VT) were located within sound-attenuating cubicles in a devoted room to limit extraneous potential impact by extraneous environmental variables. Each cubicle was equipped with an exhaust fan that provided ventilation and masked external sounds. The chambers were electronically interfaced to a Microsoft Windows based computer that was programmed using investigator developed software to control sessions and record number of lever press responses at 100-ms intervals.
The right wall of each chamber contained a liquid receptacle and a response lever (Med Associates) that was termed the active lever. Lever press responses on the active lever activated a syringe pump (PHM-100, Med Associates) that delivered 0.1 ml of alcohol solution (ethanol 8% v/v+sucrose 2% w/v) into the receptacle over a 1.66-s period. Head entries into the liquid receptacle were recorded when an infrared photo beam was broken. A stimulus light located above the response lever was illuminated during pump activation. Lever presses during reinforcer delivery were recorded but produced no programmed consequence. […] Behavior on this lever serves as a control for motor disruptions and other nonspecific effects of test compounds. […]
Testing the efficacy of Compound 1 to reduce the reinforcing, or rewarding, effects of alcohol. Following establishment of stable baseline self-administration behavior, effects of pre-session treatment with the novel mGluR5 negative allosteric modulator Compound 1 (0, 0.3, 1, 3, and 10 mg/kg, IP) were evaluated on operant alcohol self-administration behavior (n=12 rats). […] Parameters of operant performance were measured, including total lever press responses, number of headpokes into the liquid receptacle, and rate of operant responding, which is a direct measure of positive reinforcement function. […]

SMILES | Percent time in compound-paired compartment, Mean Diff., Cocaine - Saline vs. Saline - Saline [1] | Preference Scores (time difference drug-paired minus saline-paired), Mean Diff., Cocaine - Saline vs. Saline - Saline [1] | H2O intake after 24-hr access ([2]; 3 mg/kg i.p., Compound 1 or comparison compounds) | water intake after 1-hr access ([2]; Compound 1 0-10 mg/kg, or Compound 1, MPEP, Naltrexone 3 mg/kg i.p.) | alcohol intake at the 24-hr measurement interval, comparison of equivalent doses ([2]; each drug 3 mg/kg i.p. acute) | alcohol drinking at 1-hr of access vs vehicle control, positive control comparison ([2]; each drug 3 mg/kg i.p. acute, N=11) | EtOH reinforced responses vs vehicle, multiple comparisons [3]
COC(=O)[C@H]1[C@@H](OC(=O)c2ccccc2)C[C@@H]2CC[C@H]1N2C [Cocaine] | 13.86% | 332.9 s |  |  |  |  | 
O=C1CC[C@@]2(O)[C@H]3Cc4ccc(O)c5c4[C@@]2(CCN3CC2CC2)[C@H]1O5 [Naltrexone, reference compound] |  |  | no effect | did not reach statistical significance | only Compound 1 (3 mg/kg) maintained efficacy | significantly decreased alcohol drinking | reduced EtOH reinforced responses
